Measurements reported in patent US20220031800A1, “PEPTIDES FOR TREATING NON-EXUDATIVE MACULAR DEGENERATION AND OTHER DISORDERS OF THE EYE” (Allegro Pharmaceuticals, LLC, priority 2019, published 2022).
Square brackets hold non-standard residues; d marks the D form. Peptide text beside a SMILES is read from it. Cya = N[C@@H](CS(=O)(=O)O)C(=O)O

System: study eye of subjects with intermediate non-exudative AMD
Assay: SD-OCT Analysis 2 (thickness, volume, map coverage of retinal layers)
Type: in vivo, human
Settings: change from baseline at Week 32
Experimental: Numerous study assessments were conducted at various time points throughout the study. Included among these study assessments were; refractive eye examinations, determinations of BCVA AND low-luminance BCVA, Lanthony D-15 color vision test, measurement of intraocular pressure (IOP), Indirect ophthalmoscopy/dilated fundus examinations and spectral-domain optical coherence tomography (SD-OCT). Also, blood and saliva samples were obtained from each subject for genetic analysis. The above-listed study assessments were performed at the time points indicated in Table 1, below: The OCT scans were analyzed by two (2) unrelated experts. In Analysis #2, the OCT images of study eyes were analyzed to determine mean thickness and mean volume of numerous retinal subfields and layer segments at baseline and at Week 12 for sham eyes and at baseline and at Week 32 for risuteganib eyes, to document any significant differences between groups of eyes based on baseline measurements or changes from baseline in those measurements. In addition to the quantitative analysis of OCT images, OCT Analysis #2 included qualitative assessment of the OCT images to identify GA, pseudodrusen, and disruption of the ELM and EZ layers. FIGS. 9A, 9B and 9C illustrate the level of varying pathology within the ELM based on quantitative mapping that were also assessed, with FIG. 9A (left) showing no ELM disruption, FIG. 9B (center) showing segmental disruption, and FIG. 9C showing diffuse disruption.

[1] = risuteganib nonresponder eyes, n = 12

## C[C@@H](O)[C@H](NC(=O)[C@H](CS(=O)(=O)O)NC(=O)CNC(=O)[C@H](CCCNC(=N)N)NC(=O)CN)C(=O)N1CCC[C@H]1C(=O)O [risuteganib, Glycyl-L-arginylglycyl-3-sulfo-L-alanyl-L-threonyl-L-proline] (H-GRG[Cya]TP-OH)
Risuteganib Responder eyes
  Change in mean thickness, ONL-RPE foveal center: 0.650 μm
  Change in mean thickness, ONL-RPE mid subfield: −6.561 μm
  Change in mean thickness, RPE-BM central subfield: −8.238 μm
  Change in mean thickness, RPE-BM foveal center: −12.512 μm
  Change in mean thickness, RPE-BM mid subfield: −5.287 μm
  Change in mean thickness, Total retinal central subfield: −0.691 μm
  Change in mean thickness, Total retinal foveal center: 0.804 μm
  Change in mean thickness, Total retinal mid subfield: −1.049 μm
  Change in volume, ELM-EZ central subfield: −0.002 mm^3
  Change in volume, ELM-EZ mid subfield: −0.003 mm^3
  Change in volume, ELM-RPE: 0.086 mm^3
  Change in volume, ELM-RPE central subfield: −0.002 mm^3
  Change in volume, ELM-RPE mid subfield: −0.007 mm^3
  Change in volume, EZ-RPE: −0.059 mm^3
  Change in volume, EZ-RPE central subfield: −0.001 mm^3
  Change in volume, EZ-RPE mid subfield: −0.004 mm^3
  Change in volume, ONL-EZ central subfield: −0.004 mm^3
  Change in volume, ONL-EZ mid subfield: −0.017 mm^3
  Change in volume, ONL-RPE: 0.009 mm^3
  Change in volume, ONL-RPE central subfield: −0.005 mm^3
  Change in volume, ONL-RPE mid subfield: −0.021 mm^3
  Change in volume, RPE-BM: −0.049 mm^3
  Change in volume, RPE-BM central subfield: −0.007 mm^3
  Change in volume, RPE-BM mid subfield: −0.017 mm^3
  Change in volume, Total retinal: −0.188 mm^3
  Change in volume, Total retinal central subfield: 0.000 mm^3
  Change in volume, Total retinal mid subfield: −0.004 mm^3
  Map coverage, 0 μm EZ: 3.679%
  Map coverage, 0 μm RPE-BM: 1.099%
  Map coverage, 10 μm EZ: 3.699%
  Map coverage, 20 μm EZ: 3.574%
  Map coverage, 50 μm RPE-BM: −3.49%
  Map coverage, 150 μm RPE-BM: 3.335%
  Map coverage, 250 μm RPE-BM: −0.011%
Risuteganib arm, n = 24
  Change in mean thickness, ELM-EZ central subfield: −1.827 μm
  Change in mean thickness, ELM-EZ mid subfield: −0.106 μm
  Change in mean thickness, ELM-RPE central subfield: −2.912 μm
  Change in mean thickness, ELM-RPE foveal center: −6.094 μm
  Change in mean thickness, ELM-RPE mid subfield: −1.593 μm
  Change in mean thickness, EZ-RPE central subfield: −1.085 μm
  Change in mean thickness, EZ-RPE foveal center: −0.407 μm
  Change in mean thickness, EZ-RPE mid subfield: −1.486 μm
  Change in mean thickness, Inner retina central subfield: 3.880 μm
  Change in mean thickness, Inner retina mid subfield: 3.893 μm
  Change in mean thickness, ONL-EZ central subfield: −6.131 μm
  Change in mean thickness, ONL-EZ mid subfield: −4.954 μm
  Change in mean thickness, ONL-RPE central subfield: −7.216 μm
  Change in mean thickness, ONL-RPE foveal center: −3.488 μm
  Change in mean thickness, ONL-RPE mid subfield: −6.441 μm
  Change in mean thickness, RPE-BM central subfield: −4.178 μm
  Change in mean thickness, RPE-BM foveal center: −8.126 μm
  Change in mean thickness, RPE-BM mid subfield: −2.086 μm
  Change in mean thickness, Total retinal central subfield: −3.336 μm
  Change in mean thickness, Total retinal foveal center: −4.154 μm
  Change in mean thickness, Total retinal mid subfield: −2.548 μm
  Change in volume, ELM-EZ central subfield: −0.001 mm^3
  Change in volume, ELM-EZ mid subfield: 0.000 mm^3
  Change in volume, ELM-RPE: 0.048 mm^3
  Change in volume, ELM-RPE central subfield: −0.002 mm^3
  Change in volume, ELM-RPE mid subfield: −0.005 mm^3
  Change in volume, EZ-RPE: −0.027 mm^3
  Change in volume, EZ-RPE central subfield: −0.001 mm^3
  Change in volume, EZ-RPE mid subfield: −0.005 mm^3
  Change in volume, ONL-EZ central subfield: −0.005 mm^3
  Change in volume, ONL-EZ mid subfield: −0.016 mm^3
  Change in volume, ONL-RPE: −0.009 mm^3
  Change in volume, ONL-RPE central subfield: −0.005 mm^3
  Change in volume, ONL-RPE mid subfield: −0.020 mm^3
  Change in volume, RPE-BM: −0.006 mm^3
  Change in volume, RPE-BM central subfield: −0.003 mm^3
  Change in volume, RPE-BM mid subfield: −0.007 mm^3
  Change in volume, Total retinal: −0.048 mm^3
  Change in volume, Total retinal central subfield: −0.002 mm^3
  Change in volume, Total retinal mid subfield: −0.008 mm^3
  Map coverage, 0 μm EZ: 2.574%
  Map coverage, 0 μm RPE-BM: 1.282%
  Map coverage, 10 μm EZ: 2.515%
  Map coverage, 20 μm EZ: 2.431%
  Map coverage, 50 μm RPE-BM: −2.644%
  Map coverage, 150 μm RPE-BM: 2.739%
  Map coverage, 250 μm RPE-BM: −0.006%
[1]
  Change in mean thickness, ELM-EZ central subfield: −1.332 μm
  Change in mean thickness, ELM-EZ mid subfield: 0.754 μm
  Change in mean thickness, ELM-RPE central subfield: −2.722 μm
  Change in mean thickness, ELM-RPE foveal center: −12.189 μm
  Change in mean thickness, ELM-RPE mid subfield: −1.044 μm
  Change in mean thickness, EZ-RPE central subfield: −1.390 μm
  Change in mean thickness, EZ-RPE foveal center: −1.789 μm
  Change in mean thickness, EZ-RPE mid subfield: −1.798 μm
  Change in mean thickness, Inner retina central subfield: 1.896 μm
